{"source": "paper PMC11984586", "about": "“A novel spider toxin as a selective antagonist of the Kv1 subfamily of voltage-gated potassium channels through gating modulation” (The Journal of Biological Chemistry, 2025)", "type_in_all_cases": "cell-based, human", "key": {"Kv1.1/Y256A": {"test_system": "Kv1.1/Y256A", "test": "Whole-cell patch clamp, Tyr-to-Ala mutant homologous to Kv1.3 Y339", "conditions": "10 μM MrVIII, +30 mV, 500 ms, holding −80 mV, mean ± SD, n = 4–6", "text": "(§1) Building on the identification of key amino acid residues in Kv1.3 channel that interact with MrVIII through alanine-scanning mutagenesis, we extended our analysis to explore these residues across other Kv1 subfamily channels. […] However, MrVIII retained substantial inhibitory potency on Kv1.2/Y266A mutant, albeit without fully blocking the channel current. […] The profound reduction in MrVIII's effect across homologous mutants supports the idea that it binds to a conserved region.\n(§2) The cDNA of hKv1.1, hKv1.2, hKv1.3, rKv1.4, hKv1.5, mKv1.6, and hKv1.7 were subcloned into mammalian expression vectors pcDNA3.1 or pCMV-blank vectors, as well as other plasmids described previously ([35]). Channel mutants were generated by site-directed mutations. Briefly, the parental channel plasmid was amplified using a pair of oppositely directed primers harboring the designed mutation site, with KOD Fx (TOYOBO Co, Ltd). The resulting PCR mix was treated with FastDigest DpnI (Thermo Fisher Scientific) to remove the methylated template. Ten microliters of the digested product was then used to transform 100 μl E. coli DH5α competent cells. […]\n(§3) CHO-K1 cells were selected for expressing Kv channels due to their lack of endogenous Kv channels, while HEK293 or ND7/23 cells were used for Nav and Cav channel expression. […] After 4 to 6 h transfection, cells were seeded onto poly-lysine–coated coverslips, and 24 to 36 h later, transfected cells were ready for patch-clamp analysis. […]\n(§4) For Kv current recordings, the bath solution contained (in mM) the following: 140 NaCl, 5 KCl, 1 MgCl2, 2 CaCl2, 10 glucose, and 10 Hepes (pH 7.3, adjusted with NaOH), and the pipette solution contained (in mM) the following: 140 KCl, 2.5 MgCl2, 11 EGTA, and 10 Hepes (pH 7.3, adjusted with KOH). […] Whole cell conductance (G) at each depolarizing voltage (V) was determined using the equation: G = I/(V−Vrev), where I is the current amplitude, and Vrev is the reversal potential. […] The steady-state fast inactivation of Kv1.3 was measured using a two-pulses protocol. […]"}, "Kv1.7/Y253A": {"test_system": "Kv1.7/Y253A", "test": "Whole-cell patch clamp, Tyr-to-Ala mutant homologous to Kv1.3 Y339", "conditions": "10 μM MrVIII, +30 mV, 500 ms, holding −80 mV, mean ± SD, n = 4–6", "text": "as §1, §2, §3, §4"}, "Kv1.5/Y368A": {"test_system": "Kv1.5/Y368A", "test": "Whole-cell patch clamp, Tyr-to-Ala mutant homologous to Kv1.3 Y339", "conditions": "10 μM MrVIII, +30 mV, 500 ms, holding −80 mV, mean ± SD, n = 4–6", "text": "as §1, §2, §3, §4"}, "[1]": {"test_system": "Kv1.3/1.1 S3-S4 chimeric channel", "test": "Whole-cell patch clamp, chimeric channel", "conditions": "+30 mV, mean ± SD", "text": "(§5) To investigate the structural determinants underlying the differential regulatory effects of MrVIII on Kv1 channels, we employed a chimeric channel strategy. Using Kv1.3 as the template, the S1-S2, S3-S4, and S5-S6 transmembrane helices and their respective linkers from Kv1.1 were inserted to generate chimeras, generating the Kv1.3/1.1 S1-S2, Kv1.3/1.1 S3-S4, and Kv1.3/1.1 S5-S6 chimeric channels. […] These findings indicate that the S3-S4 is the key determinant for the differential inhibition of Kv1.1 and Kv1.3 by MrVIII. To further validate this conclusion, we constructed a reverse chimeric channel using Kv1.1 as the template, inserting the corresponding regions from Kv1.3 into Kv1.1. […] This finding more directly illustrates the exchange of the channel's voltage-dependence phenotype in toxin inhibition by swapping this S3-S4 between Kv1.1 and Kv1.3. […] In addition to confirming the differential role of S3-S4 between Kv1.1 and Kv1.3, we also substituted the S3-S4 of Kv1.4 and Kv1.7 into Kv1.3 to analyze MrVIII's inhibition profile. […] The IC50 for Kv1.3/1.7 S3-S4 could not be fitted, and inhi%(495 ms) was only 23.1 ± 10.0% (Fig. S2, E and F).\n(§6) The cDNA of hKv1.1, hKv1.2, hKv1.3, rKv1.4, hKv1.5, mKv1.6, and hKv1.7 were subcloned into mammalian expression vectors pcDNA3.1 or pCMV-blank vectors, as well as other plasmids described previously ([35]). Channel mutants were generated by site-directed mutations. Briefly, the parental channel plasmid was amplified using a pair of oppositely directed primers harboring the designed mutation site, with KOD Fx (TOYOBO Co, Ltd). The resulting PCR mix was treated with FastDigest DpnI (Thermo Fisher Scientific) to remove the methylated template. Ten microliters of the digested product was then used to transform 100 μl E. coli DH5α competent cells. Transformants were randomly picked and sequenced to confirm the presence of the intended mutation.\n(§7) CHO-K1 cells were selected for expressing Kv channels due to their lack of endogenous Kv channels, while HEK293 or ND7/23 cells were used for Nav and Cav channel expression. CHO-K1 cells were cultured in a Dulbecco's modified Eagle's medium/Ham's F-12 nutrient mixture (DMEM-F12) medium, and HEK293T and ND7/23 cells in DMEM medium, all supplemented with 10% fetal bovine serum and 1% penicillin-streptomycin (all from Gibco, Thermo Fisher Scientific, Inc) under standard conditions (37 °C, 5% CO2, and saturated humidity). These cell lines were purchased from Stem Cell Bank, Chinese Academy of Sciences. Channel plasmids were cotransfected with pEGFP-N1 (encoding GFP) into the respective cells using lipofectamine 2000, following the manufacturer's instructions (Invitrogen, Thermo Fisher Scientific, Inc.). Nav1.9-GFP plasmid was transfected into ND7/23 using the X-tremeGENE HP DNA Transfection Reagent (Roche). After 4 to 6 h transfection, cells were seeded onto poly-lysine–coated coverslips, and 24 to 36 h later, transfected cells were ready for patch-clamp analysis.\n(§8) Patch clamp experiments were conducted using an electrophysiology platform comprising a MultiClamp 700B amplifier and an Axon Digidata 1550 AD/DA convertor (Axon Instruments). Data acquisition was performed with pClamp 10.5 software (Axon Instruments). All experiments were performed at room temperature.\n(§9) For Kv current recordings, the bath solution contained (in mM) the following: 140 NaCl, 5 KCl, 1 MgCl2, 2 CaCl2, 10 glucose, and 10 Hepes (pH 7.3, adjusted with NaOH), and the pipette solution contained (in mM) the following: 140 KCl, 2.5 MgCl2, 11 EGTA, and 10 Hepes (pH 7.3, adjusted with KOH). Series resistance was maintained below 10 MΩ and compensated to 80%. Concentration–response curves were fitted by the Hill equation to determine the toxin's potency. Whole cell conductance (G) at each depolarizing voltage (V) was determined using the equation: G = I/(V−Vrev), where I is the current amplitude, and Vrev is the reversal potential. […]"}, "[2]": {"test_system": "Kv1.1/1.3 S3-S4 chimeric channel", "test": "Whole-cell patch clamp, chimeric channel", "conditions": "+30 mV, 500 ms, mean ± SD, n = 4-5, read-out: IC50, Kv1.1/1.3 S3-S4 current (complete inhibition)", "text": "as §5, §6, §7, §8, §9"}}, "note": "Bridge positions count the residues as written; N and C are the ends. Peptide text beside a SMILES is read from it.", "data": [{"smiles": "CC[C@H](C)[C@@H]1NC(=O)[C@H](Cc2ccc(O)cc2)NC(=O)[C@H](CCC(N)=O)NC(=O)[C@@H]2CCCN2C(=O)[C@@H]2CSSC[C@H](NC(=O)[C@H](C)NC(=O)[C@H](CO)NC(=O)[C@H](CCC(=O)O)NC(=O)[C@H](CCC(=O)O)NC(=O)[C@@H](N)[C@@H](C)O)C(=O)NCC(=O)NCC(=O)N[C@@H](Cc3ccccc3)C(=O)N[C@@H](CC(N)=O)C(=O)N[C@@H](C)C(=O)N[C@@H](CCCNC(=N)N)C(=O)N[C@H]3CSSC[C@H](NC1=O)C(=O)N[C@@H](CCCCN)C(=O)NCC(=O)N[C@@H](Cc1c[nH]c4ccccc14)C(=O)N[C@@H](CCCNC(=N)N)C(=O)N[C@@H]([C@@H](C)O)C(=O)N[C@@H](CCCCN)C(=O)N[C@@H](CCCNC(=N)N)C(=O)N[C@H](C(=O)N[C@@H](CC(C)C)C(=O)N[C@@H](CC(N)=O)C(=O)N1CCC[C@H]1C(=O)O)CSSC[C@H](NC(=O)[C@H](CCCCN)NC(=O)[C@H](Cc1c[nH]cn1)NC(=O)[C@H](CC(C)C)NC(=O)[C@@H]1CCCN1C3=O)C(=O)N2", "note": "[MrVIII] (H-TEESACGGFNARCPLHKCCPQYICKGWRTKRCLNP-OH; disulfide 6-19, 13-24, 18-32; N-terminus and C-terminus assumed)", "values": [{"measurement": "inhibition of Kv1.1/Y256A current", "setting": "Kv1.1/Y256A", "value": "−9.5 ± 4.4", "unit": "%"}, {"measurement": "inhibition of Kv1.7/Y253A current", "setting": "Kv1.7/Y253A", "value": "−9.4 ± 13.6", "unit": "%"}, {"measurement": "inhibition of Kv1.5/Y368A current", "setting": "Kv1.5/Y368A", "value": "19.1 ± 6.2", "unit": "%"}, {"measurement": "IC50", "setting": "[1]; current at 50 ms, n = 4-5", "value": "0.23 ± 0.123", "unit": "µM"}, {"measurement": "inhi%(495 ms), Kv1.3/1.1 S3-S4 current", "setting": "[1]; current at 495 ms, negative = current enhanced", "value": "−10.0 ± 13.9", "unit": "%"}, {"measurement": "IC50", "setting": "[2]", "value": "0.0017 ± 0.0006", "unit": "µM"}]}]}
